These results are taken from ChEMBL document CHEMBL4665632, “Design, synthesis and biological evaluation of pyridone-aminal derivatives as MNK1/2 inhibitors” (Bioorg Med Chem, 2019).

Test [1] has as its target T1, MAP kinase-interacting serine/threonine-protein kinase 1 (Homo sapiens, UniProt Q9BUB5). The test can be described thus: Inhibition of MNK1 (unknown origin) at 100 nM incubated for 60 mins by HTRF assay. On the technique in general: Time-resolved FRET reads energy transfer from a long-lived donor to a nearby acceptor.
Target sequence in this assay (Q9BUB5 whole entry, looked up, the tested form may be a part): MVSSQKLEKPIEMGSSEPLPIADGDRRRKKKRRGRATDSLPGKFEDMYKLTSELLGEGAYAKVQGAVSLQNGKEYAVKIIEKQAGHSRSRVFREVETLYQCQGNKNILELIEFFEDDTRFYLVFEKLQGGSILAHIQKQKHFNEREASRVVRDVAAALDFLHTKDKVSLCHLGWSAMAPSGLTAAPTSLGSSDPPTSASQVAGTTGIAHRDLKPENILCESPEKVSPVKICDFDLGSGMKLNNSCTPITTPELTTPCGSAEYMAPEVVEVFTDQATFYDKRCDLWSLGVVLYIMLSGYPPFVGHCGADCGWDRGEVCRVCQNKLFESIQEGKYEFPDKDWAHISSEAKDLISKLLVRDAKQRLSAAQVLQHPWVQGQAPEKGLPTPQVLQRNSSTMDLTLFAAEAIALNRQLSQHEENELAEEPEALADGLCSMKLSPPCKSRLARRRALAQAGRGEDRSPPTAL
The target in test [2] is T1, MAP kinase-interacting serine/threonine-protein kinase 1. The test can be described thus: Inhibition of recombinant human N-terminal DYKDDDDK-tagged MNK1(1 to 424 residues) expressed in baculovirus expression system using TATKSGSTTKNR as substrate preincubated for 10 mins followed by ATP addition and measured after 40 mins by luminescence based assay.
Target sequence in this assay (Q9BUB5 whole entry, the tested form may be a part): as the sequence (Q9BUB5 whole entry, looked up, the tested form may be a part) above
The target in test [3] is T2, MAP kinase-interacting serine/threonine-protein kinase 2 (Homo sapiens, UniProt Q9HBH9). The test can be described thus: Inhibition of MNK2 (unknown origin) at 100 nM incubated for 60 mins by HTRF assay.
Target sequence in this assay (Q9HBH9 whole entry, looked up, the tested form may be a part): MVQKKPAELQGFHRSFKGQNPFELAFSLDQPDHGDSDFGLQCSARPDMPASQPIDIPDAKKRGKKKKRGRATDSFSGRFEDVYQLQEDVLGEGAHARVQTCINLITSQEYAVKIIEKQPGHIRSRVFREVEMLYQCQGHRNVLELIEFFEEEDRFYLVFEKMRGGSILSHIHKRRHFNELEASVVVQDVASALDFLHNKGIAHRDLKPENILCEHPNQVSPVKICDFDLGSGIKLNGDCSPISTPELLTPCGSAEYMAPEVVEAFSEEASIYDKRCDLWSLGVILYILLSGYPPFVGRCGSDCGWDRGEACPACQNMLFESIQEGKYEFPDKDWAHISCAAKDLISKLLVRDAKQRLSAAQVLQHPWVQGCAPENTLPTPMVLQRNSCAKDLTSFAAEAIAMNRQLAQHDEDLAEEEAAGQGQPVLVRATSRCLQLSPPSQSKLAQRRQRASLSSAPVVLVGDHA
The target in test [4] is T2, MAP kinase-interacting serine/threonine-protein kinase 2. The test can be described thus: Inhibition of recombinant human N-terminal GST-tagged MNK2 (1 to 465 residues) expressed in baculovirus expression system using TATKSGSTTKNR as substrate preincubated for 10 mins followed by ATP addition and measured after 40 mins by luminescence based assay.
Target sequence in this assay (Q9HBH9 whole entry, the tested form may be a part): as the sequence (Q9HBH9 whole entry, looked up, the tested form may be a part) above
The next test deals with MV4-11. The test can be described thus: Antiproliferative activity against human MV4-11 cells assessed as reduction in cell viability incubated for 72 hrs by MTT assay. The class given is functional, cell-based. Particulars: MV4-11, 72 h. On the technique in general: Tetrazolium dyes change colour on reduction, which living cells bring about.
Another test concerns HCT-116. The test can be described thus: Antiproliferative activity against human HCT-116 cells assessed as reduction in cell viability at 20 uM incubated for 72 hrs by MTT assay relative to control. The format is functional.
The test system of another test is K562. The test can be described thus: Antiproliferative activity against human K562 cells assessed as reduction in cell viability incubated for 72 hrs by MTT assay. The class given is functional, cell-based. Conditions: K562, 72 h.
Another test relates to MDA-MB-435. The test can be described thus: Antiproliferative activity against human MDA-MB-435 cells assessed as reduction in cell viability at 20 uM incubated for 72 hrs by MTT assay relative to control. The class given is functional.
A further test deals with TMD8. In words: Antiproliferative activity against human TMD8 cells assessed as reduction in cell viability incubated for 72 hrs by MTT assay. The class given is functional, cell-based. Conditions: TMD8, 72 h.
Test [5] can be described thus: Antiproliferative activity against […] cells assessed as reduction in cell viability at 20 uM incubated for 72 hrs by MTT assay relative to control. The class given is functional, Mus musculus.
Another test has as its system A549. In words: Antiproliferative activity against human A549 cells assessed as reduction in cell viability incubated at 20 uM for 72 hrs by MTT assay relative to control. The format is functional.

`Cc1cc(Nc2cc(N3CCCCC3)ncn2)c(=O)n2c1C(=O)NC21CCCCC1`: the inhibition was 37.5% in test [1] and 50.3% in [3]. Further, the half-maximal inhibitory concentration (IC50) in test [2] was 476 nM; in test [4] it was 452 nM.
For the compound `Cc1cc(Nc2ccnc(N)c2)c(=O)n2c1C(=O)NC21CCCCC1`, the IC50 is more than 20000 nM with MV4-11; 52.3 nM in test [2]; more than 20000 nM in the test on K562; 11200 nM in the test on TMD8; 48.2 nM in test [4]. In addition, the inhibition at 20 µM was found to be 42.2% with HCT-116, 37.7% in the test with MDA-MB-435, 30.1% in test [5] and 21.5% with A549. For the same compound, the values for the inhibition in test [1] and in [3] were 72.5% and 70.5%, respectively.
`Cc1cc(Nc2cccnn2)c(=O)n2c1C(=O)NC21CCCCC1`: the inhibition turned out to be 25.9% in test [1] and 23.9% in [3]. The IC50 in test [2] and in [4] was more than 500 nM in each case.
For `Cc1cc(Nc2cnccn2)c(=O)n2c1C(=O)NC21CCCCC1`, the inhibition came to 47.6% in test [1] and 36.8% in [3]. The IC50 in test [2] is 466 nM; in test [4], more than 500 nM.
On to `Cc1cc(Nc2cc(N3CCN(C)CC3)ncn2)c(=O)n2c1C(=O)NC21CCCCC1`, for which the IC50 in the test on MV4-11 was more than 20000 nM; in test [2] it was 51.2 nM; with K562 it was 17900 nM; with TMD8, 4810 nM; in test [4], 42.1 nM. Also, the inhibition at 20 µM in the test on HCT-116 stood at 65.2%; with MDA-MB-435, 44.3%; in [5], 38.8%; in the test on A549, 39%. Further, the inhibition in test [1] was determined as 54.4%; in test [3], 66.8%.
`Cc1cc(Nc2cncc(N)n2)c(=O)n2c1C(=O)NC21CCCCC1`: the figures for the inhibition in test [1] and in test [3] were 25.3% and 33.2%, respectively. For the same compound, the IC50 in [2] and in [4] was more than 500 nM each time.
With `Cc1cc(Nc2ccncn2)c(=O)n2c1C(=O)NC21CCCCC1`, the IC50 was more than 20000 nM with MV4-11; 10.5 nM in test [2]; 14200 nM in the test on K562; 6220 nM in the test on TMD8; 8.3 nM in test [4]. Further, the inhibition at 20 µM with HCT-116 was 40.1%; with MDA-MB-435, 52.4%; in test [5], 48.3%; in the test with A549, 40.5%. Also, the inhibition in test [1] was found to be 82.2%; in [3], 97.3%.
Take `Cc1cccc(Nc2cc(C)c3n(c2=O)C2(CCCCC2)NC3=O)n1`: the inhibition is 19.8% in test [1] and 13.4% in test [3]. Moreover, the IC50 in test [2] and in test [4] was more than 500 nM in each case.
`Cc1cc(Nc2cn(C)nc2C#N)c(=O)n2c1C(=O)NC21CCCCC1`: the inhibition in test [1] amounted to 10.5%; in [3] it was 11.9%. Moreover, the IC50 in test [2] and in [4] was more than 500 nM each time.
`Cc1cc(Nc2nccc(N)n2)c(=O)n2c1C(=O)NC21CCCCC1`: the inhibition in [1] worked out at 33.2%; in test [3] it was 30.2%. For the same compound, the IC50 in [2] and in [4] was more than 500 nM throughout.
On to `Cc1cc(Nc2cc(N3CCNCC3)ncn2)c(=O)n2c1C(=O)NC21CCCCC1`, for which the IC50 with MV4-11 was 11000 nM; in [2], 20.7 nM; with K562, 8780 nM; in the test with TMD8, 1810 nM; in test [4] it was 18.3 nM. Further, the inhibition at 20 µM in the test with HCT-116 worked out at 59.9%; in the test with MDA-MB-435, 35.2%; in [5] it was 18.8%; in the test on A549, 24.6%. In addition, the inhibition in test [1] was determined as 66.5%; in test [3] it was 87.7%.
As for `Cc1cc(Nc2cn(C)nc2N)c(=O)n2c1C(=O)NC21CCCCC1`, the figures for the inhibition in [1] and in test [3] were 53.2% and 55.4%, respectively. Also, the IC50 in [2] worked out at 479 nM; in test [4] it was 389 nM.
Turning to `Cc1cc(Nc2cc(NC3CCNCC3)ncn2)c(=O)n2c1C(=O)NC21CCCCC1`, the IC50 in the test with MV4-11 is 18500 nM; in test [2], 55.2 nM; in the test on K562 it was more than 20000 nM; with TMD8 it was 11000 nM; in test [4], 49.8 nM. Besides, the inhibition at 20 µM with HCT-116 is 35.2%; with MDA-MB-435, 59.2%; in test [5], 18.5%; in the test on A549 it was 43.9%. Moreover, the inhibition in test [1] was found to be 66.4%; in [3], 75.8%.
Take `Cc1cc(Nc2cc(C)c3n(c2=O)C2(CCCCC2)NC3=O)ccn1`: the inhibition amounted to 26.8% in test [1] and 45.2% in test [3]. Also, the IC50 in [2] stood at 422 nM; in test [4] it was 398 nM.
On the same counts, the results for `Cc1cc(Nc2cccnc2)c(=O)n2c1C(=O)NC21CCCCC1` are 20.2%, 13.3%, more than 500 nM and more than 500 nM.
For the compound `Cc1cc(Nc2ccncc2)c(=O)n2c1C(=O)NC21CCCCC1`, the IC50 in the test on MV4-11 was more than 20000 nM; in test [2] it was 240 nM; with K562, more than 20000 nM; in the test on TMD8 it was more than 20000 nM; in test [4], 138 nM. Also, the inhibition at 20 µM with HCT-116 came out at 12.9%; with MDA-MB-435, 48.6%; in test [5], 24%; in the test with A549, 23.1%. The inhibition in [1] was determined as 60.7%; in [3], 88.3%.
For `CC(=O)N1CCN(c2cc(Nc3cc(C)c4n(c3=O)C3(CCCCC3)NC4=O)ncn2)CC1`, the IC50 in the test on MV4-11 was more than 20000 nM; in [2] it was 68.9 nM; in the test with K562, more than 20000 nM; in the test with TMD8, 8330 nM; in [4] it was 63.8 nM. Moreover, the inhibition at 20 µM is 28.9% in the test with HCT-116, 16% with MDA-MB-435, 46.7% in test [5] and 28.8% in the test on A549. Also, the inhibition in test [1] was found to be 73.3%; in [3], 86.9%.
Regarding `Cc1cc(Nc2cc(N)ccn2)c(=O)n2c1C(=O)NC21CCCCC1`, the figures for the inhibition in test [1] and in [3] were 43.4% and 30.8%, respectively. Also, the IC50 in test [2] and in test [4] was more than 500 nM throughout.
For `Cc1cccnc1Nc1cc(C)c2n(c1=O)C1(CCCCC1)NC2=O`, the inhibition in test [1] is 17.8%; in test [3], 23%. Moreover, the concentration for half-maximal inhibition (IC50) in test [2] and in [4] was more than 500 nM throughout.
For `Cc1cc(Nc2cc(N3CCOCC3)ncn2)c(=O)n2c1C(=O)NC21CCCCC1`, the inhibition in test [1] came to 21.4%; in test [3], 35.5%. Further, the IC50 in [2] is more than 500 nM; in [4], 454 nM.
On the same counts, the results for `Cc1cc(Nc2ccccn2)c(=O)n2c1C(=O)NC21CCCCC1` are 19.5%, 16.2%, more than 500 nM and more than 500 nM.
On the same counts, the results for `Cc1cc(Nc2cn(C)nc2C(F)F)c(=O)n2c1C(=O)NC21CCCCC1` are 25.4%, 14.6%, more than 500 nM and more than 500 nM.
In the case of `Cc1cc(Nc2ncccn2)c(=O)n2c1C(=O)NC21CCCCC1`, the inhibition in test [1] is 22.4%; in test [3], 18.9%. The half-maximal inhibitory concentration (IC50) in test [2] and in [4] was more than 500 nM throughout.

As usually defined, the inhibition is the drop in the measured response relative to a control, in per cent. Usually IC50 stands for the concentration that inhibits the measured activity by half.
